Measurements from patent US20090105270A1, “Kinase inhibition and anticancer therapy” (priority 2007, published 2009).

What was measured:
Axl(h) = target: T1, Axl(h) (Homo sapiens, UniProt P30530); assay: Upstate kinase activity inhibition assay Axl(h); format: biochemical; conditions: 40 min; read-out: percentage of enzyme activity that remains
T1 construct: purchased Upstate (KinaseProfiler service)

CDK2/cyclinA(h) = target: T2, CDK2/cyclinA(h) (Homo sapiens, UniProt P24941); assay: Upstate kinase activity inhibition assay CDK2/cyclinA(h); format: biochemical; conditions: 0.2 μM Compound E
T2 construct: purchased Upstate (KinaseProfiler service)

CDK6/cyclinD3(h) = target: T3, CDK6/cyclinD3(h) (Homo sapiens, UniProt Q00534); assay: Upstate kinase activity inhibition assay CDK6/cyclinD3(h); format: biochemical; conditions: 40 min; read-out: percentage of enzyme activity that remains
T3 construct: purchased Upstate (KinaseProfiler service)

cSRC(h) = cSRC(h) (Homo sapiens, UniProt P12931); assay: Upstate kinase activity inhibition assay cSRC(h); format: biochemical; conditions: 40 min; read-out: percentage of enzyme activity that remains
DYRK2(h) = target: T4, DYRK2(h) (Homo sapiens, UniProt Q92630); assay: Upstate kinase activity inhibition assay DYRK2(h); format: biochemical; conditions: 40 min; read-out: percentage of enzyme activity that remains
T4 construct: purchased Upstate (KinaseProfiler service)

EphA7(h) = target: T5, EphA7(h) (Homo sapiens, UniProt Q15375); assay: Upstate kinase activity inhibition assay EphA7(h); format: biochemical; conditions: 40 min; read-out: percentage of enzyme activity that remains
T5 construct: purchased Upstate (KinaseProfiler service)

EphA8(h) = target: T6, EphA8(h) (Homo sapiens, UniProt P29322); assay: Upstate kinase activity inhibition assay EphA8(h); format: biochemical; conditions: 40 min; read-out: percentage of enzyme activity that remains
T6 construct: purchased Upstate (KinaseProfiler service)

IKKα(h) = target: T7, IKKα(h) (Homo sapiens, UniProt O15111); assay: Upstate kinase activity inhibition assay IKKα(h); format: biochemical; conditions: 40 min; read-out: percentage of enzyme activity that remains
T7 construct: purchased Upstate (KinaseProfiler service)

JAK2(h) = target: T8, JAK2(h) (Homo sapiens, UniProt O60674); assay: Upstate kinase activity inhibition assay JAK2(h); format: biochemical
T8 construct: purchased Upstate (KinaseProfiler service)

p70S6K(h) = target: T9, p70S6K(h) (Homo sapiens, UniProt P23443); assay: Upstate kinase activity inhibition assay p70S6K(h); format: biochemical; conditions: 40 min; read-out: percentage of enzyme activity that remains
T9 construct: purchased Upstate (KinaseProfiler service)

Pim-1(h) = Pim-1(h) (Homo sapiens, UniProt P11309); assay: Upstate kinase activity inhibition assay Pim-1(h); format: biochemical; conditions: 40 min; read-out: percentage of enzyme activity that remains
PKCγ(h) = target: T10, PKCγ(h) (Homo sapiens, UniProt P05129); assay: Upstate kinase activity inhibition assay PKCγ(h); format: biochemical; conditions: 40 min; read-out: percentage of enzyme activity that remains
T10 construct: purchased Upstate (KinaseProfiler service)

PKCε(h) = target: T11, PKCε(h) (Homo sapiens, UniProt Q02156); assay: Upstate kinase activity inhibition assay PKCε(h); format: biochemical; conditions: 40 min; read-out: percentage of enzyme activity that remains
T11 construct: purchased Upstate (KinaseProfiler service)

PKCι(h) = PKCι(h) (Homo sapiens, UniProt P41743); assay: Upstate kinase activity inhibition assay PKCι(h); format: biochemical; conditions: 40 min; read-out: percentage of enzyme activity that remains
CK2(h) = CK2(h) (Homo sapiens, UniProt P68400); assay: Upstate kinase activity inhibition assay CK2(h); conditions: 40 min, read-out: percentage of enzyme activity that remains
IKKβ(h) = IKKβ(h) (Homo sapiens, UniProt O14920); assay: Upstate kinase activity inhibition assay IKKβ(h); conditions: 40 min, read-out: percentage of enzyme activity that remains
JAK3(h) = JAK3(h) (Homo sapiens, UniProt P52333); assay: Upstate kinase activity inhibition assay JAK3(h); conditions: 40 min, read-out: percentage of enzyme activity that remains
MLCK(h) = MLCK(h) (Homo sapiens, UniProt Q9H1R3); assay: Upstate kinase activity inhibition assay MLCK(h); conditions: 40 min, read-out: percentage of enzyme activity that remains
NLK (h) = NLK (h) (Homo sapiens, UniProt Q9UBE8); assay: Upstate kinase activity inhibition assay NLK (h); conditions: 40 min, read-out: percentage of enzyme activity that remains
Plk3(h) = Plk3(h) (Homo sapiens, UniProt Q9H4B4); assay: Upstate kinase activity inhibition assay Plk3(h); conditions: 40 min, read-out: percentage of enzyme activity that remains
EphA1(h) = EphA1(h) (Homo sapiens, UniProt P21709); assay: Upstate kinase activity inhibition assay EphA1(h); conditions: 40 min, read-out: percentage of enzyme activity that remains
EphA2(h) = EphA2(h) (Homo sapiens, UniProt P29317); assay: Upstate kinase activity inhibition assay EphA2(h); conditions: 40 min, read-out: percentage of enzyme activity that remains
EphA4(h) = EphA4(h) (Homo sapiens, UniProt P54764); assay: Upstate kinase activity inhibition assay EphA4(h); conditions: 40 min, read-out: percentage of enzyme activity that remains
HIPK1(h) = HIPK1(h) (Homo sapiens, UniProt Q86Z02); assay: Upstate kinase activity inhibition assay HIPK1(h); conditions: 40 min, read-out: percentage of enzyme activity that remains
IRAK1(h) = IRAK1(h) (Homo sapiens, UniProt P51617); assay: Upstate kinase activity inhibition assay IRAK1(h); conditions: 40 min, read-out: percentage of enzyme activity that remains
MRCKα(h) = MRCKα(h) (Homo sapiens, UniProt Q5VT25); assay: Upstate kinase activity inhibition assay MRCKα(h); conditions: 40 min, read-out: percentage of enzyme activity that remains
MSSK1(h) = MSSK1(h) (Homo sapiens, UniProt Q9UPE1); assay: Upstate kinase activity inhibition assay MSSK1(h); conditions: 40 min, read-out: percentage of enzyme activity that remains
IGF-1R(h) = IGF-1R(h) (Homo sapiens, UniProt P08069); assay: Upstate kinase activity inhibition assay IGF-1R(h); conditions: 40 min, read-out: percentage of enzyme activity that remains
ROCK-II(h) = ROCK-II(h) (Homo sapiens, UniProt O75116); assay: Upstate kinase activity inhibition assay ROCK-II(h); conditions: 40 min, read-out: percentage of enzyme activity that remains
CDK1/cyclinB(h) = CDK1/cyclinB(h) (Homo sapiens, UniProt P06493); assay: Upstate kinase activity inhibition assay CDK1/cyclinB(h); conditions: 40 min, read-out: percentage of enzyme activity that remains

T3 sequence (Q00534 whole entry): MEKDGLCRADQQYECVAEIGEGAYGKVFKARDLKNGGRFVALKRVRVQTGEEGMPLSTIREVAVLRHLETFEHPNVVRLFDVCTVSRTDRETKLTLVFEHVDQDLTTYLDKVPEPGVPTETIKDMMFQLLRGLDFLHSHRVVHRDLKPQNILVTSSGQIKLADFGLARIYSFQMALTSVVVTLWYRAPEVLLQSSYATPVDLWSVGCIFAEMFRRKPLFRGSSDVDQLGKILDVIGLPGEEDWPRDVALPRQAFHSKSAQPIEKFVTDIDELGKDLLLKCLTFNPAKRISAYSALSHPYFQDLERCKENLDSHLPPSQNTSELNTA
T3 sequence (P30281 whole entry partner): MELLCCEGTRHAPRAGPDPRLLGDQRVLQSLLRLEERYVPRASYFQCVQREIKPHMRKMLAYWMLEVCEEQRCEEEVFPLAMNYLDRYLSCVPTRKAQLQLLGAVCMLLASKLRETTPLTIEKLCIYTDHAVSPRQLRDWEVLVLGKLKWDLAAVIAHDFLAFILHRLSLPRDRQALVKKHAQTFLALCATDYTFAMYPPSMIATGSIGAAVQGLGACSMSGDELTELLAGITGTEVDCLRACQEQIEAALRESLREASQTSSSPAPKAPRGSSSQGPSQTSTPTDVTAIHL
NLK (h), sequence (Q9UBE8 whole entry): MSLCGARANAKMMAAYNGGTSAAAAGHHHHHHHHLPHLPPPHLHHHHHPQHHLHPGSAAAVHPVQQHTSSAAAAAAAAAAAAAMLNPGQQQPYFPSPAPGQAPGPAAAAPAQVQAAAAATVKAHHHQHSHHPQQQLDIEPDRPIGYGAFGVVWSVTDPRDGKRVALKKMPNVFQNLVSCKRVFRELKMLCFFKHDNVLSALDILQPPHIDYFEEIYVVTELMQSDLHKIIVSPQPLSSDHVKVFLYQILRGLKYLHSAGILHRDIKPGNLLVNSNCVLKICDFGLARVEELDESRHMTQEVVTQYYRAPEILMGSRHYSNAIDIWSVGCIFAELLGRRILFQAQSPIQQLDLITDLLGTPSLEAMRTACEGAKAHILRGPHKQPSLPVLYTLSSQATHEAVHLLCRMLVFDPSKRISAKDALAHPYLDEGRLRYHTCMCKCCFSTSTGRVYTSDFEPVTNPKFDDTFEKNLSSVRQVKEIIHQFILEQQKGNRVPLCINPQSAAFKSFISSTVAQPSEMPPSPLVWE
EphA4(h), sequence (P54764 20-986): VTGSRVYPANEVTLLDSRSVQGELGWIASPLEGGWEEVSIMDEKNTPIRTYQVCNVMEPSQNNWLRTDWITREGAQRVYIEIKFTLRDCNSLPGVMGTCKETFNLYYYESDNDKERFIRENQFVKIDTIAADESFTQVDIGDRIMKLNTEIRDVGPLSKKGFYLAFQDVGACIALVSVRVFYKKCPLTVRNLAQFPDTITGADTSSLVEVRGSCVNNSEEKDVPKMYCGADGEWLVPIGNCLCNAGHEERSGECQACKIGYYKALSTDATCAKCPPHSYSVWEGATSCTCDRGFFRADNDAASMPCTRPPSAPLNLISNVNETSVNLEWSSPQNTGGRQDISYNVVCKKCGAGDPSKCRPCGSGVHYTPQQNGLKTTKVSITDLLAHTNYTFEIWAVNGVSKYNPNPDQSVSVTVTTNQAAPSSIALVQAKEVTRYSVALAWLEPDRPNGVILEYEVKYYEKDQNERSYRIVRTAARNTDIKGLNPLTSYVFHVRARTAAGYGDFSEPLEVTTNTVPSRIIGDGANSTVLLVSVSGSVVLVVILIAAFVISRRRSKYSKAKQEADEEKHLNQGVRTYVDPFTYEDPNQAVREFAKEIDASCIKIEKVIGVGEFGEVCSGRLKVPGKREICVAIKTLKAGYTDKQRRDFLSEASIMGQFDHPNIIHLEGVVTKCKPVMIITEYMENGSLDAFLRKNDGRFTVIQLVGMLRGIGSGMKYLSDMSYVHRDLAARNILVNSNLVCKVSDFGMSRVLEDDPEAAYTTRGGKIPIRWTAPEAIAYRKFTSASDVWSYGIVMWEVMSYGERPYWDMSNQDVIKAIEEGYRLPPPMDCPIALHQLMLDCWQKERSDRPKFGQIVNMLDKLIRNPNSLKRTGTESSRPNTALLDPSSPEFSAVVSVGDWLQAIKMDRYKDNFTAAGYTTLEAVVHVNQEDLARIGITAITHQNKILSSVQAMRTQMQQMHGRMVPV
JAK3(h), sequence (P52333 whole entry): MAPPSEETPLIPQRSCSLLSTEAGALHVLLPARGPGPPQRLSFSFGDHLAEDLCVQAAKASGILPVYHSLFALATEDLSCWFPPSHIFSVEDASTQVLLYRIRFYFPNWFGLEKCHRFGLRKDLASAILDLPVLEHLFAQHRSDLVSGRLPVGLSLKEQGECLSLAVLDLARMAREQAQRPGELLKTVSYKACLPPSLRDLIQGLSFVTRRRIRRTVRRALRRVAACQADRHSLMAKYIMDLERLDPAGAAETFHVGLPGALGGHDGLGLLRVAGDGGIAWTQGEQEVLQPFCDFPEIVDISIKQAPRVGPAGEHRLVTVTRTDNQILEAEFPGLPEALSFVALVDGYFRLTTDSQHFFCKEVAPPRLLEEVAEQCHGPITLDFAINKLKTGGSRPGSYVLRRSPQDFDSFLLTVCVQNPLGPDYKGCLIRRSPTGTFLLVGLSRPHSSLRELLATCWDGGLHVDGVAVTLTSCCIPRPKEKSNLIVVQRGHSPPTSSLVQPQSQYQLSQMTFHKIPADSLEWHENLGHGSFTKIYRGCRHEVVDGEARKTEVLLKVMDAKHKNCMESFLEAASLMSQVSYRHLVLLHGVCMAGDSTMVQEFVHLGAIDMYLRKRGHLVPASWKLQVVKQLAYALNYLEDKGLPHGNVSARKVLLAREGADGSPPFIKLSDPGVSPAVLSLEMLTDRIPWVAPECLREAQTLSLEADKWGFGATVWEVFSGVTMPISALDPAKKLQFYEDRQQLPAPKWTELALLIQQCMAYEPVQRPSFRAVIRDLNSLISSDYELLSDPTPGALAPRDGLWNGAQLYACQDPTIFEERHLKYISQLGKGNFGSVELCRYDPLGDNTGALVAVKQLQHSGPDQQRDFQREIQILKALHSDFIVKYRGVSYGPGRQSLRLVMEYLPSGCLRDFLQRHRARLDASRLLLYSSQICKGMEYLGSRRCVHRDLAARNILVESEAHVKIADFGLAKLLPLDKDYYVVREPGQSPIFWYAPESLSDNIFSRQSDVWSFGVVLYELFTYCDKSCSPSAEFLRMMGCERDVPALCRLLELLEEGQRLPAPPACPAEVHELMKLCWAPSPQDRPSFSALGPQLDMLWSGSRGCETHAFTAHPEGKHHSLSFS
T11 sequence (Q02156 whole entry): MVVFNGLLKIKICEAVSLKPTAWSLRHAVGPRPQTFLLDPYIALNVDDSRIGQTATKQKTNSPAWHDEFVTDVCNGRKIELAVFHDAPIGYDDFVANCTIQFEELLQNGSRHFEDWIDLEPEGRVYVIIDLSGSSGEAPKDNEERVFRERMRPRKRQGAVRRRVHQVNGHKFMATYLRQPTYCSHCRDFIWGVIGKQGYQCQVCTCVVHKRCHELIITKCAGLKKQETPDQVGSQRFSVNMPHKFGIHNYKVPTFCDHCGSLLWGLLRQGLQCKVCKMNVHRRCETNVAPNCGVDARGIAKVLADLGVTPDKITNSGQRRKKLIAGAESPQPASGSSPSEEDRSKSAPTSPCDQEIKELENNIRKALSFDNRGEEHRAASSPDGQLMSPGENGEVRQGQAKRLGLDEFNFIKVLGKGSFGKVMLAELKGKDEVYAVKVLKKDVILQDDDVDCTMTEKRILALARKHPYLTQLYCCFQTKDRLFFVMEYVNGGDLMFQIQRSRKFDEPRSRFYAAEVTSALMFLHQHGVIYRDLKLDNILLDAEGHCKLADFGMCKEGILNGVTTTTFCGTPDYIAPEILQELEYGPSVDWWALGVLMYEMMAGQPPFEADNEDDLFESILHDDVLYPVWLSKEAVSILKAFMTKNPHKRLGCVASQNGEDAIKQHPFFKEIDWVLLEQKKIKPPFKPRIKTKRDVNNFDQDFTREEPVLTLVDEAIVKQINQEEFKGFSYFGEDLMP
Pim-1(h), sequence (P11309 whole entry): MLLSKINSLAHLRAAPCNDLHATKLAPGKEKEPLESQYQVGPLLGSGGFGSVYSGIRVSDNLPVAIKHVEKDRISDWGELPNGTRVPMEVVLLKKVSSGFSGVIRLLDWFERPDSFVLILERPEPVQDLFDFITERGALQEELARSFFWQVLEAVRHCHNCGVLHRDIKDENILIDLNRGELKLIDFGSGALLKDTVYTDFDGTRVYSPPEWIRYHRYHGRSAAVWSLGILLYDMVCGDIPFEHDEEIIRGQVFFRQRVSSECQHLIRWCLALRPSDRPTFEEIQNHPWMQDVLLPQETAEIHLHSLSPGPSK

In the case of `Cc1cc(Nc2cc(N3CCN(C)CC3)nc(Sc3ccc(NC(=O)C4CC4)cc3)n2)n[nH]1` [Compound E, Cyclopropane carboxylic acid {4-[4-(4-methyl-piperazin-1-yl)-6-(5-methyl-2H-pyrazol-3-ylamino)-pyrimidin-2-ylsulphanyl]-phenyl}-amide], the remaining activity at 0.2 µM (Axl(h)) is reported as 79%, the remaining activity at 4 µM (Axl(h)) is reported as 19% and the “percentage of enzyme activity that remains” value (CDK2/cyclinA(h)) is reported as 99%. It also gave a remaining activity at 0.2 µM (CDK6/cyclinD3(h)) of 103%, a remaining activity at 4 µM (CDK6/cyclinD3(h)) of 97% and a remaining activity at 0.2 µM (cSRC(h)) of 87%. The remaining activity at 4 µM (cSRC(h)) was 25%, the remaining activity at 0.2 µM (DYRK2(h)) was 100% and the remaining activity at 4 µM (DYRK2(h)) was 110%. The remaining activity at 4 µM (EphA7(h)) was 78%, the remaining activity at 0.2 µM (EphA8(h)) was 92% and the remaining activity at 0.2 µM (IKKα(h)) was 103%. The remaining activity at 4 µM (IKKα(h)) was 99%, the “percentage of enzyme activity that remains” value (JAK2(h); 0.2 μM Compound E) was 75% and the “percentage of enzyme activity that remains” value (JAK2(h); 4 μM Compound E) was 19%. The remaining activity at 4 µM (p70S6K(h)) was 92%, the remaining activity at 0.2 µM (Pim-1(h)) was 102% and the remaining activity at 4 µM (Pim-1(h)) was 103%. The remaining activity at 0.2 µM (PKCγ(h)) was 96%, the remaining activity at 4 µM (PKCγ(h)) was 82% and the remaining activity at 0.2 µM (PKCε(h)) was 98%. For the same compound, the remaining activity at 4 µM (PKCε(h)) was 96%, the remaining activity at 0.2 µM (PKCι(h)) was 100% and the remaining activity at 4 µM (PKCι(h)) was 78%. The remaining activity at 0.2 µM (CK2(h)) was 100%, the remaining activity at 4 µM (CK2(h)) was 93% and the remaining activity at 0.2 µM (IKKβ(h)) was 106%. It also gave a remaining activity at 4 µM (IKKβ(h)) of 117%, a remaining activity at 0.2 µM (JAK3(h)) of 107% and a remaining activity at 4 µM (JAK3(h)) of 105%. For the same compound, the remaining activity at 0.2 µM (MLCK(h)) was 95%, the remaining activity at 4 µM (MLCK(h)) was 88% and the remaining activity at 0.2 µM (NLK (h)) was 105%. The remaining activity at 4 µM (NLK (h)) was 99%, the remaining activity at 0.2 µM (Plk3(h)) was 107% and the remaining activity at 4 µM (Plk3(h)) was 105%. The remaining activity at 0.2 µM (EphA1(h)) was 93%, the remaining activity at 4 µM (EphA1(h)) was 27% and the remaining activity at 0.2 µM (EphA2(h)) was 78%. It also gave a remaining activity at 4 µM (EphA2(h)) of 10%, a remaining activity at 0.2 µM (EphA4(h)) of 103% and a remaining activity at 4 µM (EphA4(h)) of 61%. For the same compound, the remaining activity at 0.2 µM (HIPK1(h)) was 100%, the remaining activity at 4 µM (HIPK1(h)) was 100% and the remaining activity at 0.2 µM (IRAK1(h)) was 107%. It also gave a remaining activity at 4 µM (IRAK1(h)) of 108%, a remaining activity at 0.2 µM (MRCKα(h)) of 96% and a remaining activity at 4 µM (MRCKα(h)) of 99%. It also gave a remaining activity at 0.2 µM (MSSK1(h)) of 110%, a remaining activity at 4 µM (MSSK1(h)) of 108% and a remaining activity at 0.2 µM (IGF-1R(h)) of 76%. For the same compound, the remaining activity at 4 µM (IGF-1R(h)) was 26%, the remaining activity at 0.2 µM (ROCK-II(h)) was 93% and the remaining activity at 4 µM (ROCK-II(h)) was 106%. For the same compound, the remaining activity at 0.2 µM (CDK1/cyclinB(h)) was 108% and the remaining activity at 4 µM (CDK1/cyclinB(h)) was 102%.
